In ChEMBL document CHEMBL5252664, “Orally Active Forms of DMT, 5-MeO-DMT, and Long-Acting MDMA for the Treatment of Neuropsychiatric Disorders” (ACS Med Chem Lett, 2023):

Experiments:
Assay type in all cases: ADME, organism-based
Conditions in all cases: in vivo
[1] = Cmax in Sprague-Dawley rat at 10 mg/kg, po; parameters: dose 10 mg/kg, route po
[2] = Tmax in Sprague-Dawley rat at 10 mg/kg, po
[3] = AUC (0 to last) in Sprague-Dawley rat at 10 mg/kg, po; parameters: dose 10 mg/kg, route po
[4] = Half life in Sprague-Dawley rat at 10 mg/kg, po

Row | Structure (SMILES) | Cmax [1] | Tmax [2] | AUC(0-t) [3] | half-life [4]
1 | COc1ccc2c(c1)c(CCN(C)C)cn2C(=O)c1ccccc1 | 17.7 ng/mL | 1 h | 66.5 ng·h/mL | 10.3 h
2 | COc1ccc2c(c1)c(CCN(C)C)cn2C(=O)[C@@H](N)C(C)C.Cl.Cl | 11.1 ng/mL | 2 h | 155 ng·h/mL | 5.54 h
3 | C[C@H](N)C(=O)n1cc(CCN(C)C)c2ccccc21.Cl.Cl | 20.2 ng/mL | 0.5 h | 126 ng·h/mL | 4.08 h
4 | COc1ccc2c(c1)c(CCN(C)C)cn2C(=O)CCCC(C)=O | 106 ng/mL | 1 h | 362 ng·h/mL | 2.02 h
5 | CN(C)CCc1cn(C(=O)CN(C)C(=O)[C@H](N)Cc2ccccc2)c2ccccc12.Cl.Cl | 2.43 ng/mL | 0.5 h | 7.17 ng·h/mL | 3.31 h
